Results from patent US9241991B2, “Agents, compositions, and methods for treating pruritus and related skin conditions” (The Brigham and Women's Hospital, Inc., priority 2010, dated 2016).

How the values were obtained:
DRG neurons = assay: Calcium imaging from cultured DRG neurons; assay type: cell-based; settings: wild-type mice DRG neurons
Experimental: DRGs from all spinal levels of 4-week old mice were collected in cold DH10 (90% DMEM/F-12, 10% FBS, 100 U/ml penicillin, and 100 μg/ml Streptomycin, Gibco) and treated with enzyme solution (5 mg/ml Dispase, 1 mg/ml Collagenase Type I in HPBS without Ca^++ and Mg^++, Gibco) at 37° C. Following trituration and centrifugation, cells were resuspended in DH10, plated on glass cover slips coated with poly-D-lysine (0.5 mg/ml, Stoughton, Mass.) and laminin (10 μg/ml, Invitrogen), cultured in an incubator ([…] and 5% CO2) at 37° C. and used within 24 hours. Neurons were loaded with Fura 2-acetomethoxy ester (Molecular Probes) for 30 min in the dark at room temperature. After washing, cells were imaged at 340 and 380 nm excitation to detect intracellular free calcium. To compare the response to histamine, chloroquine, and capsaicin between WT and Tlr3-deficient DRG neurons, calcium imaging assays were performed with an experimenter blind to genotype (n=3 per genotype), and the percentages of DRG neurons showing calcium responses were determined as we previously described (23).

TLR7 [1] = assay: Scratches after intradermal injection in the nape of the neck, WT and Tlr7-/- mice; assay type: in vivo; settings: for dose response curve of scratching: intradermal injection, nape
Description: We next evaluated whether TLR7 plays a role in itch sensation. We counted the number of scratches (bouts) by a hindpaw of mouse following intradermal injection of pruritogenic agents in the nape of the neck.

TRPV1 = TRPV1 (Mus musculus, UniProt Q704Y3); assay: Resiniferatoxin pretreatment: heat sensitivity, imiquimod-induced scratches, TLR7+ skin fibers; assay type: in vivo, mice; design: central terminals of TRPV1-expressing nociceptors; from tissue; host or cells: mouse lumbar spinal cord slices (L4-L5); live mice (intrathecal capsaicin, resiniferatoxin pretreatment)
Chain of TRPV1 (Q704Y3 whole entry): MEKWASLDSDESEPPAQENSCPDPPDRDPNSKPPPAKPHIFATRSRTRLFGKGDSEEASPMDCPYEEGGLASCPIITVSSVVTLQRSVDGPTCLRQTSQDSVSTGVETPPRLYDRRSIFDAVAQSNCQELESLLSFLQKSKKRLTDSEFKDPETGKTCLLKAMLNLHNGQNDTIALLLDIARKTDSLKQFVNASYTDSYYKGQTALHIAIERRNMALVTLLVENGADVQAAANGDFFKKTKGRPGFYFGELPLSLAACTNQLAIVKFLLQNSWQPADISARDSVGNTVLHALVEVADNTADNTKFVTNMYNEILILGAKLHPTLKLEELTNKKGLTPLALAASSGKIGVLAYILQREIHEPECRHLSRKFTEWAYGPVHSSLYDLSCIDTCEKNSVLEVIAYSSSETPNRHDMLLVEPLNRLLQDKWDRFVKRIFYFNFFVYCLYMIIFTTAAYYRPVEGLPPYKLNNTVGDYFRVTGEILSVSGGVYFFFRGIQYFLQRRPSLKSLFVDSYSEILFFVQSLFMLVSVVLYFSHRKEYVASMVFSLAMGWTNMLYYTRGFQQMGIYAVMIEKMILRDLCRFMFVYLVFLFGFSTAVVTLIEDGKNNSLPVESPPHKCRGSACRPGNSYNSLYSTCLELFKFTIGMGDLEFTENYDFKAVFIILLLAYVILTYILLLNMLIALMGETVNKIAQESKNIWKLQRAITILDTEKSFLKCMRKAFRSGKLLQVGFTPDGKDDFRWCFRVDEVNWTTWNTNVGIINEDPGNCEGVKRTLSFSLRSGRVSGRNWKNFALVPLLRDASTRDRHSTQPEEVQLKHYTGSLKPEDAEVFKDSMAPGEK
Description: C-fibers, express transient receptor potential subtype V1 (TRPV1) and are indispensable for itch sensation by various pruritogens (Imamachi, N. et al. Proc. Natl. Acad. Sci. U.S. A 106, 11330-11335 (2009)). […] Thus, TRPV1-expressing C-fibers but not TRPV1 per se are required for imiquimod-elicited itch. We also tested itch responses in mast cell-deficient SASH mice (Liu, Q. et al. Cell 139, 1353-1365 (2009)) and only found a moderate reduction (28%) in imiquimod-induced scratching (FIG. 12c).

TLR7 [2] = molecular target: T1, TLR7 (Mus musculus, UniProt P58681); assay: Cheek model of itch versus pain, TLR7 ligands; assay type: in vivo, mice; settings: 20 μg intradermal into the cheek
T1 construct: We found functional TLR7 receptors in small-size DRG neurons; from tissue; host or cells: small DRG neurons of mice; nape and cheek skin of live mice (C57BL/6J background, CD1)
T1 sequence (P58681 27-1050): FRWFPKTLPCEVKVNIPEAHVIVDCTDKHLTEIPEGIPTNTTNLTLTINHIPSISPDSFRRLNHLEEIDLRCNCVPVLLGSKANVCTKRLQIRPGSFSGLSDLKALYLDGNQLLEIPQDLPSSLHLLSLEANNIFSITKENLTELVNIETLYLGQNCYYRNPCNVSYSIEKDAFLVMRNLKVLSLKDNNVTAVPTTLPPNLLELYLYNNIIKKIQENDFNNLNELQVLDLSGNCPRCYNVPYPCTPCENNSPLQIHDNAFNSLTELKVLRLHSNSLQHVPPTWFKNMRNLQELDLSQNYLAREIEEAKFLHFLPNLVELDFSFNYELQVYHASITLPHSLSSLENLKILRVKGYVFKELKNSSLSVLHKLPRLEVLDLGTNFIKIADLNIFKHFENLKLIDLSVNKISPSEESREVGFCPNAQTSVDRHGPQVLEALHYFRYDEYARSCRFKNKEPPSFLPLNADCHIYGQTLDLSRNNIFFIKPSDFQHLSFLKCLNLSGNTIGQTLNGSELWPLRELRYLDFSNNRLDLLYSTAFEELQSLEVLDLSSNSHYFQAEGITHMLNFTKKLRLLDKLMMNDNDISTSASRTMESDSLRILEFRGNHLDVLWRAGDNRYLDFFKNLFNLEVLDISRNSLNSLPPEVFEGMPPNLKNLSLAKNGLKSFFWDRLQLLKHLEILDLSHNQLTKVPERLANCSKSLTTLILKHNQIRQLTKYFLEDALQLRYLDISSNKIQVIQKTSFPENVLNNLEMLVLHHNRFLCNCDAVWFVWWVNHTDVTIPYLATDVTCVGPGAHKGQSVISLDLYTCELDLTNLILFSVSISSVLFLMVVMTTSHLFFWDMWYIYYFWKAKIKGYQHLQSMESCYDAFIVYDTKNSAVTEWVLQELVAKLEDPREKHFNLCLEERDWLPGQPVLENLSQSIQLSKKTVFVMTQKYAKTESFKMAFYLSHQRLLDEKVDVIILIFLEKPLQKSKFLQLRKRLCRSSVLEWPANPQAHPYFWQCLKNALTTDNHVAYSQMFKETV
Experimental: To distinguish itch and pain responses simultaneously, we used the cheek model by injection of chemical into cheek of mice (8). After brief anesthesia with isoflurane, we shaved mice on cheeks (approx. 5×8 mm area) two days before experiments. On the day of experiment, we injected 10 μl of reagent (50 μg compound 48/80 or 100 μg chloroquine) into the cheek and counted the number of wipes and the number of scratches for 30 min. We only counted those unilateral wipes with the forelimb that were not part of grooming behavior. One scratch was defined as a lifting of the hind paw toward the injection site on the cheek and then returning the paw to the floor or to the mouth.
To further investigate a unique role of TLR7 in itch versus pain, we used a recently developed “cheek model” of itch (Shimada, S. G. & LaMotte, R. H. Pain 139, 681-687 (2008)).

With NCCc1c[nH]cn1 [histamine] the “neurons with intracellular Ca2+ increases” value (DRG neurons) was 10%.
With CCN(CC)CCCC(C)Nc1ccnc2cc(Cl)ccc12 (centres unmarked) [chloroquine] the “TLR7 dependence of scratching at the highest dose” value (TLR7 [1]; 600 μg) was “TLR7-independent”, the “dose response curve of scratching” value (TLR7 [1]) was “bell-shaped dose response curve” and the “neurons with intracellular Ca2+ increases” value (DRG neurons) was 5%.
In the case of C=C(C)[C@]12C[C@@H](C)[C@@]34O[C@](Cc5ccccc5)(O[C@@H]1[C@@H]3C=C(COC(=O)Cc1ccc(O)c(OC)c1)C[C@]1(O)C(=O)C(C)=C[C@@H]41)O2 [RTX, resiniferatoxin], the “heat sensitivity after pretreatment” value (TRPV1; RTX pretreatment) was “loss of heat sensitivity”, the “imiquimod-induced scratches after pretreatment” value (TRPV1; RTX pretreatment) was “almost abolished” and the “TLR7+ fibers in the skin” value (TRPV1; RTX treatment) was “ablated”.
In the case of C=CCn1c(=O)n([C@@H]2O[C@H](CO)[C@@H](O)[C@H]2O)c2nc(N)[nH]c(=O)c21 [loxoribine], the “dose response curve of scratching” value (TLR7 [1]) was “inverted-U-shaped dose response curve”, the “scratches in Tlr7-/- mice versus WT” value (TLR7 [1]; intradermal, 100 μg) was “reduced” and the “itch-like scratching in cheek model” value (TLR7 [2]) was “elicited itch-like scratching”. The “pain-indicative wiping in cheek model” value (TLR7 [2]) was “not pain-indicative wiping behavior”.
